Assay [1] deals with S. cerevisiae wild-type background strain growth inhibition. Description: vps1Δ apl2Δ double mutant yeast growth inhibitors – S. cerevisiae, background strain comparison, post-Golgi transport modulator project, dose response (AID 788). To be noted: S. cerevisiae vps1Δ apl2Δ growth inhibition, dose response; measured here: wild-type background strain growth.
Assay [2] concerns S. cerevisiae vps1Δ apl2Δ growth inhibition, dose response. Described as above.

Activity calls are given as the source filed them. No rule for the calls is given here.

One may read the IC50 as the concentration needed to halve the response being measured. For the molecule `O=C(NCc1ccc2c(c1)OCO2)C1CCCN1C(=O)Nc1ccccc1` (centres undefined), the IC50 was more than 10 µM in assay [1] and > 10 µM (inactive) in assay [2].

Turning to `O=C(NCc1ccc2c(c1)OCO2)c1ccc(CS(=O)(=O)c2cccc(C(F)(F)F)c2)o1`, the IC50 was more than 10 µM in assay [1] and > 10 µM (inactive) in assay [2].

As to `CCc1cc(=O)oc2cc(C)c(CN3CCCC(C)C3)c(O)c12` (centres undefined), the IC50 in assay [1] is more than 10 µM; in assay [2] it was > 10 µM (inactive).

In the case of `O=C(COc1ccc(Br)cc1F)NC1CCN(Cc2ccccc2)CC1`, the IC50 in assay [1] is more than 10 µM; in assay [2], 3.05 µM.

In the case of `COc1ccc(C(=O)Nc2ccc(Cl)cc2C(=O)N2CCCC(C)C2)cc1` (centres undefined), the results for the IC50 in assay [1] and in assay [2] were more than 10 µM and > 10 µM (inactive), respectively.

Turning to `CC(=O)c1ccc(N2CCN(C(=O)c3ccc(Br)cc3)CC2)c(F)c1`, the values for the IC50 in assay [1] and in assay [2] were 6.58 µM and 0.628 µM, respectively.

With `O=C(COc1ccc(Cl)cc1Cl)NCCCN1CCOCC1`, the IC50 was more than 10 µM in assay [1] and 20.8 µM in assay [2].

For the molecule `Nc1cc(N)c(OCC(F)(F)F)cc1OCC(F)(F)F`, the half-maximal inhibitory concentration (IC50) in assay [1] was more than 10 µM; in assay [2] it was > 10 µM (inactive).

Turning to `Cc1cc(N2C(=O)C3CCCN3C2c2sccc2C)no1` (centres undefined), the IC50 in assay [1] was more than 10 µM; in assay [2], > 10 µM (inactive).

Turning to `CCN1C(=O)c2ccc(C(=O)NCc3ccccc3)cc2C1=O`, the IC50 is more than 10 µM in assay [1] and > 10 µM (inactive) in assay [2].

As for `CCCCCOc1ccc(CN2CCOCC2)cc1Cl`, the IC50 in assay [1] is more than 10 µM; in assay [2], 3.92 µM.

Take `O=C(CCl)c1ccc(Cc2ncc(C(F)(F)F)cc2Cl)s1`: the IC50 in assay [1] is 8.68 µM; in assay [2] it was 16.2 µM (inactive).

As to `COc1ccccc1N1CCN(C2CCN(C(=O)c3cc(OC)c(OC)c(OC)c3)CC2)CC1`, the results for the IC50 in assay [1] and in assay [2] were more than 10 µM and > 10 µM (inactive), respectively.

With `COc1ccc(C2C3=C(CCCC3=O)Nc3nc(-c4cc(OC)c(OC)c(OC)c4)nn32)cc1OC` (centres undefined), the values for the IC50 in assay [1] and in assay [2] were more than 10 µM and > 10 µM (inactive), respectively.

`COc1ccc(N2CCN(C(=O)CCNS(=O)(=O)c3ccc(Br)s3)CC2)cc1`: the IC50 in assay [1] is more than 10 µM; in assay [2], > 10 µM (inactive).

Consider `COc1ccc2c(c1)C(C)=CC(C)(C)N2C(=O)CSc1nnc(-c2ccc(C)cc2)o1`, for which the half-maximal inhibitory concentration (IC50) was more than 10 µM in assay [1] and > 10 µM (inactive) in assay [2].

Take `CN1CCN(CCCNC(=O)Cn2nc(-c3ccccc3)ccc2=O)CC1`: the IC50 is more than 10 µM in assay [1] and > 10 µM (inactive) in assay [2].

As to `C/C(=N\N=C(/N)SC1CC(=O)N(c2ccc(Cl)c(Cl)c2)C1=O)c1cccs1` (centres undefined), the concentration for half-maximal inhibition (IC50) in assay [1] is 5.98 µM; in assay [2], 5.05 µM.

`Cc1cc(C)nc(N/N=C/C(Cl)=C/c2ccccc2)n1`: the IC50 is more than 10 µM in assay [1] and > 10 µM (inactive) in assay [2].

Regarding `COc1cccc(OCCCCN2CC(C)OC(C)C2)c1` (centres undefined), the IC50 is more than 10 µM in assay [1] and 4.38 µM in assay [2].

On to `Clc1ccc(Cn2nnc(-c3ccc(CN4CCOCC4)cc3)n2)cc1`, for which the IC50 was more than 10 µM in assay [1] and 1.33 µM in assay [2].

As for `ON=Cc1cccn1-c1ccccc1`, the IC50 in assay [1] is more than 10 µM; in assay [2] it was > 10 µM (inactive).

Take `CCC(=O)N(CCO)Cc1cc2ccc(C)c(C)c2[nH]c1=O`: the IC50 in assay [1] is more than 10 µM; in assay [2], > 10 µM (inactive).

For the molecule `O=C(COc1ccc(Cl)cc1)Nc1ccc(N2CCN(C(=O)c3ccco3)CC2)cc1`, the half-inhibitory concentration (IC50) in assay [1] is more than 10 µM; in assay [2] it was > 10 µM (inactive).

On to `Cc1cc(C)n2nc(C(=O)NCc3ccccc3)cc2n1`, for which the figures for the IC50 in assay [1] and in assay [2] were more than 10 µM and > 10 µM (inactive), respectively.

As to `Cc1ccc(SC(C)C(=O)Nc2ncn[nH]2)cc1` (centres undefined), the figures for the IC50 in assay [1] and in assay [2] were more than 10 µM and > 10 µM (inactive), respectively.

Turning to `O=C(OCn1ncc(Br)c(Br)c1=O)c1ccc(F)cc1`, the results for the concentration for half-maximal inhibition (IC50) in assay [1] and in assay [2] were 5.38 µM and 5.12 µM, respectively.

The values are drawn from PubChem BioAssay AID788 (SRMLSC, 2007).
